biological target: T1, Human CXCR4 transfected HEK293 cells (Homo sapiens, UniProt P61073); assay: CXCR4 functional calcium assay (calcium flux FLIPR, antagonism of SDF1 response); format: cell-based; settings: CXCR4 functional activity, antagonism of SDF1 (EC50 concentration), read-out: CXCR4 fKi
T1 construct: expressed in transfected cells; host or cells: HEK293
Procedure, shortened: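 Dose-dependent antagonism of the SDF1 response was read by FLIPR as Fluo-4 calcium signal (2 μM dye) in CXCR4-expressing human HEK293 cells, in HBSS with probenecid, BSA and HEPES at pH 7.4 and 37° C. Test compound was given before an EC50-level SDF1 challenge. Curves were then fitted.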

T1 sequence (P61073 whole entry): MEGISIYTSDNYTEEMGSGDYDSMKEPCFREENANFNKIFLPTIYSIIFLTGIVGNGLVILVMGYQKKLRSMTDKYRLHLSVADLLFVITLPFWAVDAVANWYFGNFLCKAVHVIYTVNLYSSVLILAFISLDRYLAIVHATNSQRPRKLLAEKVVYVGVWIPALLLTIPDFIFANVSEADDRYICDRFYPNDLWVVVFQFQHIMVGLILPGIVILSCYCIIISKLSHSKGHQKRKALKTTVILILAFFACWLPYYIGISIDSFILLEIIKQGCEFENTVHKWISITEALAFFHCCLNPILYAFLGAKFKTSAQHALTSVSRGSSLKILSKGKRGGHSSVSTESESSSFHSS

Structure (SMILES)	Ki [nM]
OCc1cccc(N2CCCN(C3CCN(Cc4ccccc4Cl)CC3)CC2)n1 [Example 260, [6-(4-{1-[(2-Chlorophenyl)methyl]piperidin-4-yl}-1,4-diazepan-1-yl)pyridin-2-yl]methanol]	500 to 1000
CC(C)N1CCC(N2CCCN(c3cccc(C(=O)N[C@H]4CCOC4)n3)CC2)CC1 [Example 18, N-[(3S)-Oxolan-3-yl]-6-{4-[1-(propan-2-yl)piperidin-4-yl]-1,4-diazepan-1-yl}pyridine-2-carboxamide]	100 to 500
CC(C)N1CCC(N2CCCN(c3cccc(-c4nc5ccccc5n4C)n3)CC2)CC1 [Example 140, 1-Methyl-2-(6-{4-[1-(propan-2-yl)piperidin-4-yl]-1,4-diazepan-1-yl}pyridin-2-yl)-1H-1,3-benzodiazole]	500 to 1000
O=C(NCC1CC1)c1cccc(N2CCCN(CCCN3CCc4ccccc4C3)CC2)n1 [Example 252, N-(Cyclopropylmethyl)-6-{4-[3-(1,2,3,4-tetrahydroisoquinolin-2-yl)propyl]-1,4-diazepan-1-yl}pyridine-2-carboxamide]	500 to 1000
COCCCNC(=O)c1cccc(N2CCCN(C3CCN(C(C)C)CC3)CC2)n1 [Example 15, N-(3-Methoxypropyl)-6-{4-[1-(propan-2-yl)piperidin-4-yl]-1,4-diazepan-1-yl}pyridine-2-carboxamide]	100 to 500
CC(C)(N1CCC(N2CCCN(c3cccc(C(=O)NCc4cccnc4)n3)CC2)CC1)C(F)(F)F [Example 91, N-(Pyridin-3-ylmethyl)-6-{4-[1-(1,1,1-trifluoro-2-methylpropan-2-yl)piperidin-4-yl]-1,4-diazepan-1-yl}pyridine-2-carboxamide]	100 to 500
CC(C)N1CCC(N2CCCN(c3cccc(-c4c[nH]c5ncccc45)n3)CC2)CC1 [Example 101, 1-[1-(Propan-2-yl)piperidin-4-yl]-4-(6-{1H-pyrrolo[2,3-b]pyridine-3-yl}pyridine-2-yl)-1,4-diazepane]	100 to 500
CC(C)N1CCOCC1CCN1CCCN(c2cccc(C(=O)Nc3ccncc3)n2)CC1 (centres unmarked) [Example 201, 6-(4-{2-[4-(Propan-2-yl)morpholin-3-yl]ethyl}-1,4-diazepan-1-yl)-N-(pyridin-4-yl)pyridine 2-carboxamide]	100 to 500
COc1ccc2cc(-c3cccc(N4CCCN(C5CCN(C(C)C)CC5)CC4)n3)[nH]c2c1 [Example 104, 6-Methoxy-2-(6-{4-[1-(propan-2-yl)piperidin-4-yl]-1,4-diazepan-1-yl}pyridine-2-yl)-1H-indole]	500 to 1000
CC(C)N1CCC(N2CCCN(c3cccc(-c4nnn(C)n4)n3)CC2)CC1 [Example 168, 1-[6-(2-Methyl-2H-1,2,3,4-tetrazol-5-yl)pyridin-2-yl]-4-[1-(propan-2-yl)piperidin-4-yl]-1,4-diazepane]	100 to 500
CC(C)N1CCC(N2CC3CCC2CN(c2cccc(C(=O)Nc4ccncc4)n2)C3)C(F)C1 (centres unmarked) [Example 198]	100 to 500
CCCCc1nc(-c2cccc(N3CCCN(C4CCN(C(C)C)CC4)CC3)n2)no1 [Example 157, 1-[6-(5-Butyl-1,2,4-oxadiazol-3-yl)pyridine-2-yl]-4-[1-(propan-2-yl)piperidin-4-yl]-1,4-diazepane]	100 to 500
CC(C)N1CCC(N2CCCN(c3cccc(C(=O)N(C)Cc4cccnc4)n3)CC2)CC1 [Example 35, N-Methyl-6-{4-[1-(Propan-2-yl)piperidin-4-yl]-1,4-diazepan-1-yl}-N-(pyridin-3-ylmethyl)pyridine-2-carboxamide]	100 to 500
O=C(NCCCn1ccnc1)c1cccc(N2CCCN(C3CCN(Cc4ccccc4Cl)CC3)CC2)n1 [Example 139, 6-(4-{1-[(2-Chlorophenyl)methyl]piperidin-4-yl}-1,4-diazepan-1-yl)-N-[3-(1H-imidazol-1-yl)propyl]pyridine-2-carboxamide]	100 to 500
C[C@H](N1CCC(N2CCCN(c3cccc(C(=O)NCc4nccs4)n3)CC2)CC1)C(F)(F)F [Example 94, N-(1,3-Thiazol-2-ylmethyl)-6-(4-{1-[(2S)-1,1,1-trifluoropropan-2-yl]piperidin-4-yl}-1,4-diazepan-1-yl)pyridine-2-carboxamide]	100 to 500
N#Cc1cccc(N2CCCN(C3CCN(Cc4ccccc4Cl)CC3)CC2)n1 [Example 259, 6-(4-{1-[(2-Chlorophenyl)methyl]piperidin-4-yl}-1,4-diazepan-1-yl)pyridine-2-carbonitrile]	500 to 1000
CC(C)N1CCCC(NCCNc2cccc(C(=O)Nc3ccncc3)n2)CC1 (centres unmarked) [Example 234, 6-[(2-{[1-(Propan-2-yl)azepan-4-yl]amino}ethyl)amino]-N-(pyridin-4-yl)pyridine-2-carboxamide]	100 to 500
CC(C)N1CCC(N2CCN(c3cccc(C(=O)NCC4CC4)n3)CC(O)C2)CC1 (centres unmarked) [Example 183, N-(Cyclopropylmethyl)-6-{6-hydroxy-4-[1-(propan-2-yl)piperidin-4-yl]-1,4-diazepan-1-yl}pyridine-2-carboxamide]	100 to 500
CCN1CCC(N2CCCN(c3cccc(C(=O)NCC4CC4)n3)CC2)CC1 [Example 60, N-(Cyclopropylmethyl)-6-[4-(1-ethylpiperidin-4-yl)-1,4-diazepan-1-yl]pyridine-2-carboxamide]	500 to 1000
CC(C)N1CCC(N2C3CCCC2CN(c2cccc(C(=O)NCC4CC4)n2)CC3)CC1 (centres unmarked) [Example 217, N-(Cyclopropylmethyl)-6-{10-[1-(propan-2-yl)piperidin-4-yl]-3,10-diazabicyclo[4.3.1]decan-3-yl}pyridine-2-carboxamide]	100 to 500
CC(C)N1CCC(N2CCCN(c3cccc(C(=O)NCCF)n3)CC2)CC1 [Example 8, N-(2-Fluoroethyl)-6-{4-[1-(propan-2-yl)piperidin-4-yl]-1,4-diazepan-1-yl}pyridine-2-carboxamide]	100 to 500
O=C(Nc1ccncc1)c1cccc(N2CC3CCC(C2)N(C2CCN(Cc4ccc(F)cc4Cl)CC2)C3)n1 (centres unmarked) [Example 209, 6-(6-{1-[(2-Chloro-4-fluorophenyl)methyl]piperidin-4-yl}-3,6-diazabicyclo[3.2.2]nonan-3-yl)-N-(pyridin-4-yl)pyridine-2-carboxamide]	100 to 500

Second part, the molecule after the results:

Ki [nM]	Structure (SMILES)
< 20	CCc1[nH]c(-c2cccc(N3CCCN(C4CCN(C(C)C)CC4)CC3)n2)nc1C [Example 119, 1-[6-(5-Ethyl-4-methyl-1H-imidazol-2-yl)pyridine-2-yl]-4-[1-(propan-2-yl)piperidin-4-yl]-1,4-diazepane]
20 to 100	CC(C)N1CCC(N2CCCN(c3cccc(-c4cc5cccnc5[nH]4)n3)CC2)CC1 [Example 99, 1-[1-(Propan-2-yl)piperidin-4-yl]-4-(6-{1H-pyrrolo[2,3-b]pyridine-2-yl}pyridine-2-yl)-1,4-diazepane]
20 to 100	CC(C)N1CCC(N2CCCN(c3cccc(C(=O)Cc4ccccc4)n3)CC2)CC1 [Example 220, 2-Phenyl-1-(6-{4-[1-(propan-2-yl)piperidin-4-yl]-1,4-diazepan-1-yl}pyridin-2-yl)ethan-1-one]
20 to 100	Cc1nc(-c2cccc(N3CCN(C4CCCN(C5CCCC5)CC4)CC3)n2)[nH]c1C1CC1 (centres unmarked) [Example 245, 1-Cyclopentyl-4-{4-[6-(5-cyclopropyl-4-methyl-1H-imidazol-2-yl)pyridin-2-yl]piperazin-1-yl}azepane]
< 20	[2H]C1([2H])CCN(c2cccc(C(=O)Nc3ccncc3)n2)CC(C)N1C1CCN(C(C)C)CC1 (centres unmarked) [Example 195, 6-{5,5-Dihydrogenio-3-methyl-4-[1-(propan-2-yl)piperidin-4-yl]-1,4-diazepan-1-yl}-N-(pyridin-4-yl)pyridine-2-carboxamide]
< 20	Cc1cc(NC(=O)c2cccc(N3CCCN(C4CCN(C(C)C)CC4)CC3)n2)ccn1 [Example 86, N-(2-Methylpyridin-4-yl)-6-{4-[1-(propan-2-yl)piperidin-4-yl]-1,4-diazepan-1-yl}pyridine-2-carboxamide]
< 20	CC[C@H](C)N1CCC(N2CCCN(c3cccc(C(=O)Nc4ccncc4)n3)CC2)CC1 [Example 79, 6-(4-{1-[(2S)-Butan-2-yl]piperidin-4-yl}-1,4-diazepan-1-yl)-N-(pyridine-4-yl)pyridine-2-carboxamide]
20 to 100	CC(CC(F)(F)F)N1CCC(N2CCCN(c3cccc(C(=O)NCC4CC4)n3)CC2)CC1 (centres unmarked) [Example 70, N-(Cyclopropylmethyl)-6-{4-[1-(4,4,4-trifluorobutan-2-yl)piperidin-4-yl]-1,4-diazepan-1-yl}pyridine-2-carboxamide]
20 to 100	O=C(NCC1CC1)c1cccc(N2CCCN(C3CCN(C4CCCC4)CC3)CC2)n1 [Example 72, 6-[4-(1-Cyclopentylpiperidin-4-yl)-1,4-diazepan-1-yl]-N-(cyclopropylmethyl)pyridine-2-carboxamide]
< 20	[2H]C1([2H])CCN(c2cccc(C(=O)Nc3ccncc3)n2)CC(C)N1C1CCN(Cc2ccc(F)cc2Cl)CC1 (centres unmarked) [Example 207, 6-(4-{1-[(2-Chloro-4-fluorophenyl)methyl]piperidin-4-yl}-5,5-dihydrogenio-3-methyl-1,4-diazepan-1-yl)-N-(pyridin-4-yl)pyridine-2-carboxamide]
20 to 100	O=C(NCC1CC1)c1cccc(N2CCCN(C3CCN(Cc4ccccc4Cl)CC3)CC2)n1 [Example 132, 6-(4-{1-[(2-Chlorophenyl)methyl]piperidin-4-yl}-1,4-diazepan-1-yl)-N-(cyclopropylmethyl)pyridine-2-carboxamide]
< 20	CC(C)N1CCC(N2CCCN(c3cccc(C(=O)NCc4ccncc4)n3)CC2)CC1 [Example 36, 6-{4-[1-(Propan-2-yl)piperidin-4-yl]-1,4-diazepan-1-yl}-N-(pyridin-4-ylmethyl)pyridine-2-carboxamide]
20 to 100	CC(C)N1CCC(N2CCCN(c3cccc(C(=O)NCCn4ccnc4)n3)CC2)CC1 [Example 45, N-[2-(1H-Imidazol-1-yl)ethyl]-6-{4-[1-(propan-2-yl)piperidin-4-yl]-1,4-diazepan-1-yl}pyridine-2-carboxamide]
